# Experimental data: article PMC4947980 (Journal of Medicinal Chemistry, 2016)
# Values joined by “and” are separate entries in the source; they are usually repeats but may differ in a detail not shown here. Equal values may be shown once.
# Tests used:
# [1] = test system: nonreplicating wild-type M. tuberculosis; format: cell-based, Mycobacterium tuberculosis H37Rv; details: for bactericidal activity against nonreplicating wild-type M. tuberculosis (Figure S2): in words
# [2] = test system: replicating M. tuberculosis; assay: MIC90 against replicating M. tuberculosis; format: cell-based, Mycobacterium tuberculosis mc^26220 (ΔpanCDΔlysA); details: for activity against replicating M. tuberculosis on addition of clavulanate: data not shown; for R-MIC90 3 days OD580 = 0.01: replicating
# [3] = test system: nonreplicating M. tuberculosis; assay: microbe, parasite or virus in culture; format: cell-based, Mycobacterium tuberculosis mc^26220 (ΔpanCDΔlysA); details: for NR-MIC90 3 days OD580 = 0.01 / NR-MIC90 3 days OD580 = 0.1: 3 days exposure; for activity against nonreplicating M. tuberculosis, in words: multistress nonreplicating model
# [4] = Stability in cell-free PBS and nonreplicating medium; format: physicochemical; details: day 6; for d6: % remaining in PBS: cell-free PBS pH 7.4, 37 °C; for d6: % remaining NR medium + 0.5 mM NaNO2: cell-free nonreplicating medium pH 5.0 with 0.5 mM NaNO2, 37 °C; for d6: % remaining NR medium: cell-free nonreplicating medium pH 5.0 without NaNO2, 37 °C
# [5] = Parallel artificial membrane permeability assay; format: in vitro ADME
# [6] = Plasma stability, mouse; details: 1 μg/mL, 37 °C, parent ion monitored
# [7] = Hydrolytic stability at pH 2, 7 and 12; format: physicochemical; details: percent remaining after a 4 h incubation at 37 °C
# [8] = Mouse liver microsomal stability; format: in vitro ADME; details: assayed at 0-60 min
# [9] = Human liver microsomal stability; format: in vitro ADME; details: liver microsomes, human liver microsomes t1/2, assayed at 0-60 min
# [10] = test system: intracellular M. tuberculosis; details: for CFU reduction of intracellular M. tuberculosis: IFNγ-activated macrophages, 100 μg/mL, 4 days (1) or 3 days (5)
# [11] = Solubility at pH 7.4; format: physicochemical; details: after shaking at room temperature for 4 h
# [12] = test system: nonreplicating M. tuberculosis; assay: Charcoal agar resazurin assay; format: cell-based; details: for dose-dependent decrease of CARA fluorescence, effect of NaNO2: with or without 0.5 mM NaNO2, 7 days, OD580 0.1 or 0.01
# [13] = test system: M. tuberculosis; details: cited from earlier work
# [14] = nonreplicating, 6 days exposure
compound,measurement,setting,value
CC1=C(c2nc(C)no2)N2C(=O)[C@@H](NC(=O)COc3ccc(Cl)cc3)[C@H]2SC1 [18d],bactericidal activity against nonreplicating wild-type M. tuberculosis (Figure S2),[1],bactericidal
CC1=C(c2nc(C)no2)N2C(=O)[C@@H](NC(=O)OCC(Cl)(Cl)Cl)[C@H]2SC1 [19d],bactericidal activity against nonreplicating wild-type M. tuberculosis (Figure S2),[1],bactericidal
CCCOC(=O)N[C@@H]1C(=O)N2C(C(=O)OCCC)=C(C)CS[C@H]12 [compound 2],activity against replicating M. tuberculosis on addition of clavulanate,[2]; addition of clavulanate,did not lead to activity
same,R-MIC90 3 days OD580 = 0.01,[2],55.44 µg/mL
same,NR-MIC90 3 days OD580 = 0.01,"[3]; nonreplicating, OD580 = 0.01",3.11 µg/mL
same,NR-MIC90 3 days OD580 = 0.1,[3]; nonreplicating,2.61 µg/mL
same,NR-MIC90 6 days OD580 = 0.1,[3]; [14],0.52 µg/mL
same,d6: % remaining in PBS,[4],stable
same,d6: % remaining NR medium + 0.5 mM NaNO2,[4],stable
same,d6: % remaining NR medium,[4],stable
"CC1=C(c2nc(C)no2)N2C(=O)[C@@H](NC(=O)COc3ccccc3)[C@H]2SC1 [compound 5, N-((6R,7R)-3-Methyl-2-(3-methyl-1,2,4-oxadiazol-5-yl)-8-oxo-5-thia-1-azabicyclo[4.2.0]oct-2-en-7-yl)-2-phenoxyacetamide]",PAMPA log Pe,[5],–4.87
same,stability in mouse plasma (time to complete transformation),[6],< 5 min
same,pH 2 stability,[7],100%
same,pH 12 stability,[7],0.000%
same,mouse liver microsomes t1/2,[8],rapidly metabolized
same,half-life,[9],~1.33 h
same,CFU reduction of intracellular M. tuberculosis,[10],1–2 log10
same,IFNγ dependence of bactericidal activity against intracellular M. tuberculosis,[10]; macrophages activated or not with 50 ng/mL IFNγ,strictly IFNγ dependent
same,solubility,[11],83.7 µM
same,concentration that reduced colony-forming units by 2 log10,[1],0.7–0.8 μg/mL
same,bactericidal activity against nonreplicating wild-type M. tuberculosis (Figure S2),[1],bactericidal
same,d6: % remaining NR medium + 0.5 mM NaNO2,[4],stable
same,"dose-dependent decrease of CARA fluorescence, effect of NaNO2",[12],strongly enhanced by the addition of NaNO2
CCOC(=O)C1=C(C)CS[C@@H]2[C@H](NC(=O)CCc3ccc(OC)cc3)C(=O)N12 [12i],bactericidal activity against nonreplicating wild-type M. tuberculosis (Figure S2),[1],bactericidal
CCCCOC(=O)C1=C(C)CS[C@@H]2[C@H](NC(=O)CCc3ccccc3)C(=O)N12 [12e],bactericidal activity against nonreplicating wild-type M. tuberculosis (Figure S2),[1],bactericidal
CCCc1noc(C2=C(C)CS[C@@H]3[C@H](NC(=O)COc4ccc(Cl)cc4)C(=O)N23)n1 [22c],bactericidal activity against nonreplicating wild-type M. tuberculosis (Figure S2),[1],bactericidal
CCCc1noc(C2=C(C)CS[C@@H]3[C@H](NC(=O)CCc4ccc(OC)cc4)C(=O)N23)n1 [21b],bactericidal activity against nonreplicating wild-type M. tuberculosis (Figure S2),[1],bactericidal
"CCCOC(=O)C1=C(C)CS[C@@H]2[C@H](NC(=O)COc3ccccc3)C(=O)N12 [compound 1, Propyl (6R,7R)-3-Methyl-8-oxo-7-(2-phenoxyacetamido)-5-thia-1-azabicyclo[4.2.0]oct-2-ene-2-carboxylate]",PAMPA log Pe,[5],–5.15
same,stability in mouse plasma (time to complete transformation),[6],< 5 min
same,activity against replicating M. tuberculosis on addition of clavulanate,[2]; addition of clavulanate,did not lead to activity
same,R-MIC90 3 days OD580 = 0.01,[2],>100 µg/mL
same,pH 2 stability,[7],100% and 110%
same,pH 12 stability,[7],0.000%
same,mouse liver microsomes t1/2,[8],rapidly metabolized
same,CFU reduction of intracellular M. tuberculosis,[10],1–2 log10
same,solubility,[11],22.7 µM
same,solubility at 4 h,"[11]; pH 7.4, solubility",23 µM
same,concentration that reduced colony-forming units by 2 log10,[1],0.7–0.8 μg/mL
same,NR-MIC90 3 days OD580 = 0.01,"[3]; nonreplicating, OD580 = 0.01",0.90 µg/mL
same,NR-MIC90 3 days OD580 = 0.1,[3]; nonreplicating,1.76 µg/mL
same,NR-MIC90 6 days OD580 = 0.01,"[3]; nonreplicating, 6 days exposure, OD580 = 0.01",0.64 µg/mL
same,NR-MIC90 6 days OD580 = 0.1,[3]; [14],1.05 µg/mL
same,d6: % remaining in PBS,[4],stable
same,d6: % remaining NR medium + 0.5 mM NaNO2,[4],stable
same,d6: % remaining NR medium,[4],stable
same,enhancement of activity by nitrite,"[12]; CARA, OD580 0.01, 0.5 mM NaNO2",32- to 64 fold
same,"dose-dependent decrease of CARA fluorescence, effect of NaNO2",[12],strongly enhanced by the addition of NaNO2
"CC1=C(C(=O)O)N2C(=O)[C@@H](NC(=O)[C@H](N)c3ccccc3)[C@H]2SC1 [cephalexin 4, cephalexin, reference compound]",R-MIC90 3 days OD580 = 0.01,[2],33.99 µg/mL
same,"activity against nonreplicating M. tuberculosis, in words",[3],inactive
same,NR-MIC90 3 days OD580 = 0.01,"[3]; nonreplicating, OD580 = 0.01",97.93 µg/mL
same,NR-MIC90 3 days OD580 = 0.1,[3]; nonreplicating,61.35 µg/mL
same,NR-MIC90 6 days OD580 = 0.1,[3]; [14],70.42 µg/mL
"C[C@@H](O)[C@H]1C(=O)N2C(C(=O)O)=C([C@H]3CCCO3)S[C@H]12 [faropenem, reference compound]",killing of replicating and nongrowing M. tuberculosis,[13],kill both replicating and nongrowing M. tuberculosis
same,"activity against nonreplicating M. tuberculosis, in words",[3],inactive
CCCOC(=O)C1=C(C)CS[C@@H]2[C@H](NC(=O)[C@H](N)c3ccccc3)C(=O)N12 [4b],MIC90,"[3]; Mycobacterium tuberculosis, read-out: NR d7 OD=0.1 MIC90",15.5 µg/mL
"C[C@@H](O)[C@H]1C(=O)N2C(C(=O)O)=C(S[C@@H]3CN[C@H](C(=O)N(C)C)C3)[C@H](C)[C@H]12 [Meropenem, reference compound]",enhancement of replicating MIC90 by clavulanate,[2]; addition of clavulanate,4 fold
CC1=C(c2nc(C)no2)N2C(=O)[C@@H](NC(=O)[C@H](N)c3ccccc3)[C@H]2SC1 [4c],"activity against replicating M. tuberculosis, in words",[2],completely inactive
same,"activity against nonreplicating M. tuberculosis, in words",[3],poorly active
COCC1=C(C)CS[C@@H]2[C@H](NC(=O)COc3ccccc3)C(=O)N12 [compound 10],"activity against nonreplicating M. tuberculosis, in words",[3],inactive
CCCc1noc(C2=C(C)CS[C@@H]3[C@H](NC(=O)c4ccc(Cl)cc4)C(=O)N23)n1 [compound 23],bactericidal activity against nonreplicating wild-type M. tuberculosis (Figure S2),[1],bactericidal
COC(=O)C1=C(C)CS[C@@H]2[C@H](NC(=O)[C@H](N)c3ccccc3)C(=O)N12 [4a],"activity against replicating M. tuberculosis, in words",[2],completely inactive
same,"activity against nonreplicating M. tuberculosis, in words",[3],poorly active
CCCN[C@@H]1C(=O)N2C(C(=O)OCCC)=C(C)CS[C@H]12 [compound 3],activity against replicating M. tuberculosis on addition of clavulanate,[2]; addition of clavulanate,did not lead to activity
same,R-MIC90 3 days OD580 = 0.01,[2],>100 µg/mL
same,"activity against nonreplicating M. tuberculosis, in words",[3],significant activity
same,NR-MIC90 3 days OD580 = 0.01,"[3]; nonreplicating, OD580 = 0.01",0.7 µg/mL
same,NR-MIC90 3 days OD580 = 0.1,[3]; nonreplicating,2.69 µg/mL
same,NR-MIC90 6 days OD580 = 0.1,[3]; [14],0.45 µg/mL
same,d6: % remaining NR medium + 0.5 mM NaNO2,[4],unstable
